Data: patent publication US9174931B2, “Compositions for the treatment of diabetes and pre-diabetes” (CELLIX BIO PRIVATE LIMITED, priority 2013, dated 2015)
≈ marks a conversion by molar mass, not a printed value.

assay: Water solubility of test compounds compared with EPA; assay type: physicochemical; conditions: thermodynamic from solid; distilled water added in small portions until clear solution
Method: Measurement of the water solubility of the test compound was accomplished by using methods well known to those skilled in the art. Specifically, to a weighed amount of the test compounds of Example-1, Example-2, Example-3 and EPA were taken in separate vials; distilled water was added in small portions until a clear solution was obtained. The water solubility is calculated by dividing the weight of salt, in mg, by the volume of the solution, in mL. The water solubility of the compounds of example-1, example-2, example-3 compared to EPA alone were as follows: […]

| solubility [mg/mL] | SMILES |
| --- | --- |
| 60 (≈ 119 mM) | CC/C=C\C/C=C\C/C=C\C/C=C\C/C=C\CCCC(=O)OCC(C)(C)[C@@H](O)C(=O)NCCC(=O)O [Example-1, amino(3,3-dimethylguanidino)methaniminium 3-((R)-2-hydroxy-4-((5Z,8Z,11Z,14Z,17Z)-icosa-5,8,11,14,17-pentaenoyloxy)-3,3-dimethylbutanamido) propanoate] |
| 103 (≈ 169 mM) | CC/C=C\C/C=C\C/C=C\C/C=C\C/C=C\CCCC(=O)OCC(C)(C)[C@@H](OC(=O)c1cccnc1)C(=O)NCCC(=O)O [Example-2, amino(3,3-dimethylguanidino)methaniminium 3-((R)-4-((5Z,8Z,11Z,14Z,17Z)-icosa-5,8,11,14,17-pentaenoyloxy)-3,3-dimethyl-2-(nicotinoyloxy)butanamido)propanoate] |
| < 0.3 | CC/C=C\C/C=C\C/C=C\C/C=C\C/C=C\CCCC(=O)O [EPA, Eicosapentaenoic Acid, reference compound] |

| SMILES | solubility [mg/mL] |
| --- | --- |
| CC/C=C\C/C=C\C/C=C\C/C=C\C/C=C\CCCC(=O)OCC(C)(C)[C@@H](OC(=O)c1ccccc1OC(=O)c1ccccc1OC(C)=O)C(=O)NCCC(=O)O [Example-3, amino(3,3-dimethylguanidino)methaniminium3-((R)-2-((2-((2-acetoxybenzoyl)oxy)benzoyl)oxy)-4-((5Z,8Z,11Z,14Z,17Z)-icosa-5,8,11,14,17-pentaenoyloxy)-3,3-dimethylbutanamido)propanoate] | 98 (≈ 125 mM) |
